Test results published in patent publication US20240245633A1, “ROR Gamma Agonists as Enhancers of Protective Immunity” (University of Florida Research Foundation, Incorporated, priority 2015, published 2024).
Marks after values point to notes of the source that are not given here.

Key:
full length RORγt [1] = biological target: T1, full length RORγt (Homo sapiens, UniProt P51449); assay: Full-length RORγt co-transfection with 5×RORE-Luc reporter in HEK293T cells; assay type: cell-based; conditions: 2 μM ursolic acid
T1 construct: full length RORγt was co-transfected along with a luciferase reporter; expressed in transfected cells; host or cells: HEK293T
T1 sequence (P51449 1-497 isoform P51449-2): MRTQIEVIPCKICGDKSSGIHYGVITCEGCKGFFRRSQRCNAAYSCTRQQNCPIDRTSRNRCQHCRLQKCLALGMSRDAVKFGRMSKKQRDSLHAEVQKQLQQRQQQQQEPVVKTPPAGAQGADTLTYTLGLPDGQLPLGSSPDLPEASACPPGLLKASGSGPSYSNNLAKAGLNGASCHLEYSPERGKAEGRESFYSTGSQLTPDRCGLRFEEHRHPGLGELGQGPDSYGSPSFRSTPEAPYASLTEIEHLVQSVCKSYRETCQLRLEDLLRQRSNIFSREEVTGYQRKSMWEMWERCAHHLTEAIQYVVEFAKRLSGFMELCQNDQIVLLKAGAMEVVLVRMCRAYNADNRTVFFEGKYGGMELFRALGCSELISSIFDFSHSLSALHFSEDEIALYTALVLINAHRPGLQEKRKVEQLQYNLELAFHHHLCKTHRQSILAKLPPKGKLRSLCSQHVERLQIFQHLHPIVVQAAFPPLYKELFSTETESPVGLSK
Description: (§1) In order to determine if these compounds could modulate RORγt activity in the context of the full-length receptor, we used a co-transfection system in HEK293T cells in which full length RORγt was co-transfected along with a luciferase reporter under the control of either a basic promoter containing five copies of an ROR response element (5×RORE) or a minimal IL17 promoter.

full length RORγt [2] = biological target: T1, full length RORγt; assay: Full-length RORγt co-transfection with IL17-Luc reporter in HEK293T cells; assay type: cell-based; conditions: 2 μM ursolic acid
Description: as §1

EL4 cells = assay: PD-1 surface expression in EL4 cells by flow cytometry; assay type: cell-based, murine; conditions: compound 48 hr
Experimental: Using flow cytometery surface PD-1 expression was analyzed to determine if the decrease in gene expression of PD-1 correlates to a decrease of the protein on the cell surface, Cell: surface PD-1 expression was measured in murine and human T cell lines as well as in ex vivo differentiated murine TH17 cells. […] Next we examined the impact of compound treatment on differentiated murine TH17 cells. […] To determine if there was an increase in the active T cell population during TH17 cell differentiation, the population of CD62L^−PD1^− double negative cells was measured using flow cytometry. […] To determine if the effects of SR0987 on PD-1 expression would be observed in a human cell line, Jurkat T cells were treated with the compound.
Gene expression and Cell sorting. Jurkat T cells were pre-incubated with compounds for 48 hr and activated with phorbol 12-myristate 13-acetate (PMA, 50 ng/mL; Sigma) and ionomycin (1 μg/mL; Sigma) for 5 hr. For qPCR, mRNA was isolated with an RNeasy midi kit using DNase I (Qiagen), and cDNA was synthesized with high capacity cDNA Reverse Transcription kit (Applied Biosystems). IL17A, PD-1, and granzyme B gene expression were normalized to the expression of GAPDH. The sequence of primers used in this study are found in Table 2. For cell sorting, activated Jurkat T cells were stained with APC conjugated anti-human PD-1 antibody (eBioscience). […]

RORγt LBD = biological target: T2, RORγt LBD (Homo sapiens, UniProt P51449); assay: Differential HDX-MS of RORγt LBD ± compounds; assay type: binding
T2 construct: 5 μL of a 10 μM RORγt LBD solution (Apo or in complex with 10-excess compound)
T2 sequence (P51449 269-508 limits assumed): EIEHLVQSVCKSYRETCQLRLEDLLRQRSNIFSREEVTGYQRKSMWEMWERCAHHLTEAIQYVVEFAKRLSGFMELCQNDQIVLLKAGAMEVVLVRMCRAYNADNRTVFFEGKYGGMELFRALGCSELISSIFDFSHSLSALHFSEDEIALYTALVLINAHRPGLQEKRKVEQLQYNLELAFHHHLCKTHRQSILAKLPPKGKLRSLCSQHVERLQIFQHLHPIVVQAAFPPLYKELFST
Description: While the mechanism of action of RORγt agonists on regulation of the immune checkpoint receptor PD-1 is unclear, a correlation between RORγt and PD-1 expression has been observed in PD-1 knockout mice Z Regardless, to gain insights into the structural mechanism for agonist activity we examined the impact of putative agonist ligands on the conformational dynamics of RORγt. To achieve this, we utilized differential hydrogen/deuterium exchange (HDX) mass spectrometry.
HDX-MS. Solution-phase amide HDX was performed with a fully automated system as described previously with minor modifications^30,31. For differential HDX experiments, 5 μL of a 10 μM RORγt LBD solution (Apo or in complex with 10-excess compound) was diluted to 25 μL with D20-containing HDX buffer, and incubated at 4° C. for; 10 s, 30s, 60s, 900s, and 3,600s, Following on-exchange, unwanted forward or back exchange is minimized and the protein is denatured by dilution to 50 μL with 0.1% TFA in 3M urea (held at 4° C., pH 2.5). Samples are then passed across an immobilized pepsin column (prepared in house) at 50 μL min−1 (0.1% TFA, 15° C.) and the resulting peptides are trapped onto a Ce trap cartridge (Thermo Fisher, Hypersil Gold). Peptides were then gradient eluted (4% CH3CN to 40% CH3CN, 0,3% formic acid over 5 minutes, 4° C.) across a 1 mm×50 mm Cia HPLC column (Hypersil Gold, Thermo Fisher) and electrosprayed directly into a high resolution orbitrap mass spectrometer (Exactive, Thermo Fisher). Percent deuterium exchange values for peptide isotopic envelopes at each time point were calculated and processed using HDX Workbench^32 and overlaid onto RORγt crystal structures using pyMOL (DeLano Scientific). HDX data is presented as an average of three individual replicates across […] time points (10s, 60s, 300s, 900s, and 3600s).

In the case of `CC(C)=CCC[C@@H](C)[C@H]1CC[C@H]2[C@@H]3CC=C4C[C@@H](O)CC[C@]4(C)[C@H]3CC[C@]12C` [desmosterol], the “reporter gene expression, 5×RORE promoter” value (full length RORγt [1]) is reported as “minimal induction of the reporter gene”, the “reporter gene expression, IL17 promoter” value (full length RORγt [2]) is reported as “minimal induction of the reporter gene” and the “surface expression of PD-1” value (EL4 cells) is reported as “no effect”. For the same compound, the “Differential HDX kinetics, peptide TEIEHLVQSVC” value (RORγt LBD; 268-278, charge 2, H1) was −1(4)*, the “Differential HDX kinetics, peptide TEIEHLVQSVCXS” value (RORγt LBD; 268-280, charge 3, H1) was 0(5)* and the “Differential HDX kinetics, peptide TEIEHLVQSVCKSYRETCQ” value (RORγt LBD; 268-286, charge 2, H1) was −5(3). The “Differential HDX kinetics, peptide LRLEDL” value (RORγt LBD; 287-292, charge 2, H2) was −5(4)*, the “Differential HDX kinetics, peptide RLEDLL” value (RORγt LBD; 288-293, charge 2, H2) was −6(3) and the “Differential HDX kinetics, peptide RLEDLLRQRSNIFSRE” value (RORγt LBD; 288-303, charge 4, H2/H3) was −10(4). For the same compound, the “Differential HDX kinetics, peptide WERCAHHLTEAIQ” value (RORγt LBD; 317-329, charge 2, H4) was −5(1)*, the “Differential HDX kinetics, peptide WERCAHHTEAIQY” value (RORγt LBD; 317-330, charge 3, H4) was −4(1)* and the “Differential HDX kinetics, peptide WEGAKRLSGF” value (RORγt LBD; 331-341, charge 2, H4/H5) was −1(1)*. The “Differential HDX kinetics, peptide AKRLSGF” value (RORγt LBD; 335-341, charge 2, H4/H5) was −1(2)*, the “Differential HDX kinetics, peptide CQNDQVL” value (RORγt LBD; 345-352, charge 1, H5/H6) was 0(1)* and the “Differential HDX kinetics, peptide VRMCRAYNAENRTVF” value (RORγt LBD; 363-377, charge 3, H6/B1) was −7(2). The “Differential HDX kinetics, peptide CRAYCAONRTVF” value (RORγt LBD; 366-377, charge 2, B1) was −5(2), the “Differential HDX kinetics, peptide FEGKYGGMEL” value (RORγt LBD; 373-387, charge 2, B2/H7) was −6(3) and the “Differential HDX kinetics, peptide FRALGCSE” value (RORγt LBD; 386-398, charge 2, H7/H8) was −4(3)*. For the same compound, the “Differential HDX kinetics, peptide LISSIFDFSHSLSAL” value (RORγt LBD; 395-410, charge 2, H8) was −4(2)*, the “Differential HDX kinetics, peptide ISSIFD” value (RORγt LBD; 397-402, charge 1, H8) was −4(2)* and the “Differential HDX kinetics, peptide ISSIFDFSHSL” value (RORγt LBD; 397-407, charge 2, H8) was −4(2)*. The “Differential HDX kinetics, peptide ISSIFDSHSLSAL” value (RORγt LBD; 397-410, charge 2, H8) was −4(2)*, the “Differential HDX kinetics, peptide DFSHSLSAL” value (RORγt LBD; 402-410, charge 1, H8) was −5(3) and the “Differential HDX kinetics, peptide FSHSLSAL” value (RORγt LBD; 403-410, charge 2, H8) was −4(3)*. For the same compound, the “Differential HDX kinetics, peptide HFSEDEIAL” value (RORγt LBD; 411-419, charge 2, H9) was −1(1)*, the “Differential HDX kinetics, peptide LAFHHHLCKTHRQSL” value (RORγt LBD; 448-463, charge 4, H10) was −3(2)* and the “Differential HDX kinetics, peptide AKLPFXGKLRSLCSQ” value (RORγt LBD; 464-478, charge 3, H11) was −12(4). The “Differential HDX kinetics, peptide HVERLQFQHLHPIVVQ” value (RORγt LBD; 479-495, charge 2, H11) was −12(4), the “Differential HDX kinetics, peptide QFQHLHPIVVQ” value (RORγt LBD; 484-495, charge 2, H11) was −6(4)* and the “Differential HDX kinetics, peptide AAFPPLYXEL” value (RORγt LBD; 495-505, charge 2, H12) was −2(4)*. The “Differential HDX kinetics, peptide AAFPPLYZELF” value (RORγt LBD; 496-506, charge 2, H12) was −3(3)*, the “HDX kinetics in helix 12 (H12)” value (RORγt LBD; RORγt LBD ± compound) was “No statistically significant change in HDX kinetics” and the “Differential HDX kinetics, peptide TEIEHLVQ” value (RORγt LBD; charge 2, H1, percent deuterium exchange difference) was −2(5)*.
